# Experimental data from patent US8309718B2, “4-pyrazolyl-N-arylpyrimidin-2-amines and 4-pyrazolyl-N-heteroarylpyrimidin-2-amines as janus kinase inhibitors” (Incyte Corporation, priority 2007, dated 2012).
# Target: T1, human JAK2 (Homo sapiens, UniProt O60674)
# T1 construct: JAK2 (a.a. 828-1132); His tag (N); made in house; host or cells: insect cells (baculovirus)
# Assay: In vitro JAK kinase assay (HTRF, phosphorylation of biotinylated peptide)
# Format: biochemical
# Details: catalytic domain a.a. 828-1132, 30 μM ATP, 500 nM peptide, room temperature 1 hr; read-out: JAK-2 IC50
# Summary of the method: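 His-tagged human JAK2 catalytic domain (a.a. 828-1132), baculovirus/insect-cell expressed; phosphorylation of 500 nM biotinylated peptide at 30 μM ATP in 50 mM Tris pH 7.8, 100 mM NaCl, 5 mM DTT, 0.01% BSA. 1 h at room temperature, EDTA stop, HTRF read (Eu-Py20/SA-APC); IC50.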
# T1 sequence (O60674 828-1132): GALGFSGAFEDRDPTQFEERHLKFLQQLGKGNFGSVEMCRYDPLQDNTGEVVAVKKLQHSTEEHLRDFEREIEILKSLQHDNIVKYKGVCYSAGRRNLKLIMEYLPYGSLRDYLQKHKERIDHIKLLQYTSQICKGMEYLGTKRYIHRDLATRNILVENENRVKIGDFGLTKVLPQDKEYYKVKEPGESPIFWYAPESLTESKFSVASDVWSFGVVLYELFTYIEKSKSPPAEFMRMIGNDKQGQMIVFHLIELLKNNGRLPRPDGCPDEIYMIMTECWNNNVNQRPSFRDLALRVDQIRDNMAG
row,IC50 [nM],Structure (SMILES)
1,< 100,"N#CCC1(n2cc(-c3ccnc(Nc4ccc(C(=O)NCCO)cc4)n3)cn2)CCN(S(=O)(=O)C2CC2)CC1 [Example 31, 4-(4-(1-(4-(cyanomethyl)-1-(cyclopropylsulfonyl)piperidin-4-yl)-1H-pyrazol-4-yl)pyrimidin-2-ylamino)-N-(2-hydroxyethyl)benzamide]"
2,< 100,"CN(C)C(=O)c1ccc(Nc2nccc(-c3cnn(C4(CC#N)CCN(S(=O)(=O)C5CC5)CC4)c3)n2)cc1 [Example 32, 4-(4-(1-(4-(cyanomethyl)-1-(cyclopropylsulfonyl)piperidin-4-yl)-1H-pyrazol-4-yl)pyrimidin-2-ylamino)-N,N-dimethylbenzamide]"
3,< 100,"N#CCC1(n2cc(-c3ccnc(Nc4ccc(N5CCOCC5)cc4)n3)cn2)CN(S(=O)(=O)C2CC2)C1 [Example 93, 2-(1-(cyclopropylsulfonyl)-3-(4-(2-(4-morpholinophenylamino)pyrimidin-4-yl)-1H-pyrazol-1-yl)azetidin-3-yl)acetonitrile]"
4,< 100,"N#CCC1(n2cc(-c3ccnc(Nc4ccc(N5CCOCC5)cc4)n3)cn2)CCN(C(=O)c2ccno2)CC1 [Example 94, 2-(1-(isoxazole-5-carbonyl)-4-(4-(2-(4-morpholinophenylamino)pyrimidin-4-yl)-1H-pyrazol-1-yl)piperidin-4-yl)acetonitrile]"
5,< 100,"CN1CCCC1CCNC(=O)c1cccc(Nc2nccc(-c3cnn(C(CC#N)C4CCCC4)c3)n2)c1 (stereo not drawn) [Example 149, 3-(4-(1-(2-cyano-1-cyclopentylethyl)-1H-pyrazol-4-yl)pyrimidin-2-ylamino)-N-(2-(1-methylpyrrolidin-2-yl)ethyl)benzamide]"
6,< 100,"N#CCC(C1CCCC1)n1cc(-c2ccnc(Nc3cccc(C(=O)NCCN4CCNC4=O)c3)n2)cn1 (stereo not drawn) [Example 159, 3-(4-(1-(2-cyano-1-cyclopentylethyl)-1H-pyrazol-4-yl)pyrimidin-2-ylamino)-N-(2-(2-oxoimidazolidin-1-yl)ethyl)benzamide]"
7,< 100,"N#CCC(C1CCCC1)n1cc(-c2ccnc(Nc3cccc(NC(=O)O[C@@H]4CCOC4)c3)n2)cn1 (stereo partly drawn) [Example 200, (R)-tetrahydrofuran-3-yl 3-(4-(1-(2-cyano-1-cyclopentylethyl)-1H-pyrazol-4-yl)pyrimidin-2-ylamino)phenylcarbamate]"
8,< 100,"N#CCC(C1CCCC1)n1cc(-c2ccnc(Nc3ccc(NC(=O)CN4CC[C@@H](O)C4)cc3)n2)cn1 (stereo partly drawn) [Example 204, N-(4-(4-(1-(2-cyano-1-cyclopentylethyl)-1H-pyrazol-4-yl)pyrimidin-2-ylamino)phenyl)-2-((R)-3-hydroxypyrrolidin-1-yl)acetamide]"
9,< 100,"CC(=O)N[C@H]1CCN(C(=O)c2ccc(Nc3nccc(-c4cnn(C(CC#N)C5CCCC5)c4)n3)cc2)C1 (stereo partly drawn) [Example 222, N-((3S)-1-(4-(4-(1-(2-cyano-1-cyclopentylethyl)-1H-pyrazol-4-yl)pyrimidin-2-ylamino)benzoyl)pyrrolidin-3-yl)acetamide]"
10,< 100,"CCS(=O)(=O)N1CC(CC#N)(n2cc(-c3ccnc(Nc4ccc(C(=O)N5CCOCC5)cc4)n3)cn2)C1 [Example 255, 2-(1-(ethylsulfonyl)-3-(4-(2-(4-(morpholine-4-carbonyl)phenylamino)pyrimidin-4-yl)-1H-pyrazol-1-yl)azetidin-3-yl)acetonitrile]"
11,< 100,"CCS(=O)(=O)N1CC(CC#N)(n2cc(-c3ccnc(Nc4ccc(C(=O)N5CCC(O)CC5)cc4)n3)cn2)C1 [Example 256, 2-(1-(ethylsulfonyl)-3-(4-(2-(4-(4-hydroxypiperidine-1-carbonyl)phenylamino)pyrimidin-4-yl)-1H-pyrazol-1-yl)azetidin-3-yl)acetonitrile]"
12,< 100,"CCS(=O)(=O)N1CC(CC#N)(n2cc(-c3ccnc(Nc4ccc(C(=O)N5[C@@H]6CC[C@H]5C[C@@H](O)C6)cc4)n3)cn2)C1 [Example 257, 2-(1-(ethylsulfonyl)-3-(4-(2-(4-((3-endo)-3-hydroxy-8-azabicyclo[3.2.1]octane-8-carbonyl)phenylamino)pyrimidin-4-yl)-1H-pyrazol-1-yl)azetidin-3-yl)acetonitrile]"
13,< 100,"CCS(=O)(=O)N1CC(CC#N)(n2cc(-c3ccnc(Nc4ccc(C(=O)N5CCCC5)cc4)n3)cn2)C1 [Example 258, 2-(1-(ethylsulfonyl)-3-(4-(2-(4-(pyrrolidine-1-carbonyl)phenylamino)pyrimidin-4-yl)-1H-pyrazol-1-yl)azetidin-3-yl)acetonitrile]"
14,< 100,"CCS(=O)(=O)N1CC(CC#N)(n2cc(-c3ccnc(Nc4ccc(C(=O)NC5CCOCC5)cc4)n3)cn2)C1 [Example 259, 4-(4-(1-(3-(cyanomethyl)-1-(ethylsulfonyl)azetidin-3-yl)-1H-pyrazol-4-yl)pyrimidin-2-ylamino)-N-(tetrahydro-2H-pyran-4-yl)benzamide]"
15,< 100,"CCS(=O)(=O)N1CC(CC#N)(n2cc(-c3ccnc(Nc4ccc(C(=O)N5CCC5)cc4)n3)cn2)C1 [Example 273, 2-(3-(4-(2-(4-(azetidine-1-carbonyl)phenylamino)pyrimidin-4-yl)-1H-pyrazol-1-yl)-1-(ethylsulfonyl)azetidin-3-yl)acetonitrile]"
16,< 100,"CCS(=O)(=O)N1CC(CC#N)(n2cc(-c3ccnc(Nc4ccc(C(=O)N5C6CC7CC5CC(C6)O7)cc4)n3)cn2)C1 [Example 274, 1-(ethylsulfonyl)-3-(4-(2-(4-(2-oxa-6-azatricyclo[3.3.1.1(3,7)]dec-6-ylcarbonyl)phenyl)aminopyrimidin-4-yl)-1H-pyrazol-1-yl)azetidin-3-ylacetonitrile]"
17,< 100,"CCS(=O)(=O)N1CC(CC#N)(n2cc(-c3ccnc(Nc4ccc(C(=O)N5CCC(OC)CC5)cc4)n3)cn2)C1 [Example 275, (1-(ethylsulfonyl)-3-4-(2-(4-((4-methoxypiperidin-1-yl)carbonyl)phenylamino)pyrimidin-4-yl)-1H-pyrazol-1-ylazetidin-3-yl)acetonitrile]"
18,< 100,"CCS(=O)(=O)N1CC(CC#N)(n2cc(-c3ccnc(Nc4ccc(C(=O)N5CC[C@@H](C#N)C5)cc4)n3)cn2)C1 [Example 276, (R)-1-(4-(4-(1-(3-(cyanomethyl)-1-(ethylsulfonyl)azetidin-3-yl)-1H-pyrazol-4-yl)pyrimidin-2-ylamino)benzoyl)pyrrolidine-3-carbonitrile]"
19,< 100,"CCS(=O)(=O)N1CC(CC#N)(n2cc(-c3ccnc(Nc4ccc(C(=O)N5CC[C@H](OC)C5)cc4)n3)cn2)C1 [Example 277, (S)-2-(1-(ethylsulfonyl)-3-(4-(2-(4-(3-methoxypyrrolidine-1-carbonyl)phenylamino)pyrimidin-4-yl)-1H-pyrazol-1-yl)azetidin-3-yl)acetonitrile]"
20,< 100,"CCS(=O)(=O)N1CC(CC#N)(n2cc(-c3ccnc(Nc4ccc(C(=O)N5CC[C@@H](O)C5)cc4)n3)cn2)C1 [Example 278, (R)-2-(1-(ethylsulfonyl)-3-(4-(2-(4-(3-hydroxypyrrolidine-1-carbonyl)phenylamino)pyrimidin-4-yl)-1H-pyrazol-1-yl)azetidin-3-yl)acetonitrile]"
21,< 100,"CCS(=O)(=O)N1CC(CC#N)(n2cc(-c3ccnc(Nc4ccc(C(=O)N5CCN(C)CC5)cc4)n3)cn2)C1 [Example 279, 2-(1-(ethylsulfonyl)-3-(4-(2-(4-(4-methylpiperazine-1-carbonyl)phenylamino)pyrimidin-4-yl)-1H-pyrazol-1-yl)azetidin-3-yl)acetonitrile]"
22,< 100,"CCS(=O)(=O)N1CC(CC#N)(n2cc(-c3ccnc(Nc4ccc(C(=O)N5CC[C@@H](NC(C)=O)C5)cc4)n3)cn2)C1 [Example 280, (R)—N-(1-(4-(4-(1-(3-(cyanomethyl)-1-(ethylsulfonyl)azetidin-3-yl)-1H-pyrazol-4-yl)pyrimidin-2-ylamino)benzoyl)pyrrolidin-3-yl)acetamide]"
23,< 100,"CCS(=O)(=O)N1CC(CC#N)(n2cc(-c3ccnc(Nc4ccc(C(=O)N5CCN(C(C)=O)CC5)cc4)n3)cn2)C1 [Example 281, 2-(3-(4-(2-(4-(4-acetylpiperazine-1-carbonyl)phenylamino)pyrimidin-4-yl)-1H-pyrazol-1-yl)-1-(ethylsulfonyl)azetidin-3-yl)acetonitrile]"
24,< 100,"CCS(=O)(=O)N1CC(CC#N)(n2cc(-c3ccnc(Nc4ccc(C(=O)N5CC[C@H](F)C5)cc4)n3)cn2)C1 [Example 283, (S)-2-(1-(ethylsulfonyl)-3-(4-(2-(4-(3-fluoropyrrolidine-1-carbonyl)phenylamino)pyrimidin-4-yl)-1H-pyrazol-1-yl)azetidin-3-yl)acetonitrile]"
25,< 100,"CCOC(=O)N1CCC(NC(=O)c2ccc(Nc3nccc(-c4cnn(C5(CC#N)CN(S(=O)(=O)CC)C5)c4)n3)cc2)CC1 [Example 284, Ethyl 4-(4-(4-(1-(3-(cyanomethyl)-1-(ethylsulfonyl)azetidin-3-yl)-1H-pyrazol-4-yl)pyrimidin-2-ylamino)benzamido)piperidine-1-carboxylate]"
26,< 100,"N#CCC1(n2cc(-c3ccnc(Nc4ccc(C(=O)N5CC[C@@H](C#N)C5)cc4)n3)cn2)CC(C#N)C1 (stereo partly drawn) [Example 297, (R)-1-(4-(4-(1-(3-cyano-1-(cyanomethyl)cyclobutyl)-1H-pyrazol-4-yl)pyrimidin-2-ylamino)benzoyl)pyrrolidine-3-carbonitrile]"
27,< 100,"CC(=O)N[C@@H]1CCN(C(=O)c2ccc(Nc3nccc(-c4cnn(C5(CC#N)CC(C#N)C5)c4)n3)cc2)C1 (stereo partly drawn) [Example 299, (R)—N-(1-(4-(4-(1-(3-cyano-1-(cyanomethyl)cyclobutyl)-1H-pyrazol-4-yl)pyrimidin-2-ylamino)benzoyl)pyrrolidin-3-yl)acetamide]"
